Results on 1 compound are retold here after US20240010654A1, “CRYSTALLINE FORMS OF A TYK2 INHIBITOR” (Ventyx Biosciences, Inc., priority 2022, published 2024).

This assay concerns JAK1/TYK2. Description: Co-stimulation assay in lysed whole blood: IFNa (JAK1/TYK2) stimulated STAT1 phosphorylation. Type of assay: cell-based. The conditions noted are these: lysed human whole blood, IFNa 100 ng/mL, pSTAT1 by flow cytometry; read-out: IFN-a/Jak1Tyk2 IC50. The protocol: Example 16: Co-Stimulation Assay in Lysed Whole Blood; JAK2: GM-CSF Stimulated STAT5 Phosphorylation and JAK1/TYK2 Stimulated STAT1 Phosphorylation Assay
Dilute RBC lysis buffer to 1× in distilled water. Add 2 mL blood to 38 mL of 1×RBC-lysis buffer. Incubate for 15 mins at RT, in dark. Spin at 300 g, 5 mins, to collect the pellet. Re-lyse if necessary. Re-suspend pellet in 5 mL of cRPMI.
Aliquot 80 μL of lysed human blood in to wells of 96 deep-well plate. Add 10 μL of (10× conc.) of different concentrations of Compound 1 to all wells except controls (unstained and unstimulated) and mix it with the help of 100 uL multichannel. Add 10 uL of RPMI media in controls. For dilution of Compound 1 and dilution range please refer Appendix. Incubate on water bath or CO2 incubator for 1 hour at 37° C. Add 10 μL of (10× conc.) of cytokine mix (GM-CSF and IFNa) (final conc. 10 ng/mL of GM-CSF and 100 ng/mL of IFNa) to each well except unstimulated and unstained controls and incubate further for 20 minutes on water bath at 37° C.
Add 900 μL of prewarmed 1× Fix/Lyse solution (Appendix) and mix it properly using 1000 μl multichannel, incubate further on water bath at 37° C. for 10 minutes (which includes time of addition). Centrifuge at 800×g for 5 minutes at 40° C.; remove 900 uL of supernatant and add 900 μL of 1×PBS. Centrifuge at 800×g for 5 minutes at 40° C., remove 900 μL of supernatant. […]

As for `CNc1cc(Nc2cc(F)cc3c2OCCO3)nc2c(NC(=O)N[C@@H]3C[C@@H]3F)cnn12` [Compound 1, 1-(5-((7-fluoro-2,3-dihydrobenzo[b][1,4]dioxin-5-yl)amino)-7-(methylamino)pyrazolo[1,5-a]pyrimidin-3-yl)-3-((1R,2S)-2-fluorocyclopropyl)urea], the IC50 is less than 1000 nM.
